Experimental findings from patent US20250000881A1, “TREATMENT OF TREATMENT RESISTANT […] PSILOCYBIN” (COMPASS […], priority 2021, published 2025) are described below.

This assay concerns adult subjects with TRD. Kind of assay: Phase 2b trial in TRD: Sheehan Disability Scale (SDS). It counts as in vivo, human. To be noted: 25 mg vs 1 mg, week 3. Here is the method: Other objectives were to evaluate the effects of psilocybin on quality of life and wellbeing, functioning and associated disability, cognitive function, and anxiety compared to 1 mg psilocybin on: • (a) Quality of life in subject EuroQoL (EQ)-5 dimension-3 level scale (EQ-5D-3L) score change from Baseline to week 3. This will also be assessed at week 12. This assessment was not mandatory. • (b) Quality of life in caregiver EQ-5D-3L score change from Baseline to week 3. This was assessed at week 12. • (c) Functioning and associated disability in the Sheehan Disability Scale (SDS) score change from Baseline to week 3. This was also assessed at week 12. • (d) Cognitive function as measured by the Digit Symbol Substitution Test (DSST) score change from baseline to week 3. This was assessed at day 1 and week 12. • (e) Level of anxiety as measured using the change in Generalised Anxiety Disorder 7 item Scale (GAD-7) total score change from baseline to week 3. This was assessed at week 12. • (f) Subject determined level of depression as measured using the change in Quick Inventory of Depressive Symptomatology Self-Rated (QIDS-SR-16) total score from Baseline to week 3. […] This was assessed at week 12. • (h) To evaluate the impact of different psilocybin doses on real life functional activity estimated from passive data streams collected on a mobile app on subjects' mobile phones. […]

`CN(C)CCc1c[nH]c2cccc(OP(=O)(O)O)c12` [COMP360, psilocybin] registered an SDS treatment difference of −6.49.
